Reference: ChEMBL document CHEMBL5604063, “ASAP - DENV-2 NS2B-NS3 protease fluorescence dose response” (2024)
pIC50: −log10 of the molar value. Several values for one entry are separate records, joined by “and”; a condition that tells them apart may be missing. Identical values can stand only once.

Key:
Genome polyprotein [1] = target: T1, Genome polyprotein (dengue virus type 2, UniProt P29990); format: functional, Thailand/16681/1984
Genome polyprotein [2] = target: T1, Genome polyprotein; format: functional, Thailand/16681/1984; remark: listed apart in the source

T1 sequence (P29990 1346-1475 limits assumed): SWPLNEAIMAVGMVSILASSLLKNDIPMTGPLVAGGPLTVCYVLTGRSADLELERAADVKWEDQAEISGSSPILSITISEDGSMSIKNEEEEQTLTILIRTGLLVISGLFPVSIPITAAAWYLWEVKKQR
T1 sequence (P29990 1476-2093 limits assumed): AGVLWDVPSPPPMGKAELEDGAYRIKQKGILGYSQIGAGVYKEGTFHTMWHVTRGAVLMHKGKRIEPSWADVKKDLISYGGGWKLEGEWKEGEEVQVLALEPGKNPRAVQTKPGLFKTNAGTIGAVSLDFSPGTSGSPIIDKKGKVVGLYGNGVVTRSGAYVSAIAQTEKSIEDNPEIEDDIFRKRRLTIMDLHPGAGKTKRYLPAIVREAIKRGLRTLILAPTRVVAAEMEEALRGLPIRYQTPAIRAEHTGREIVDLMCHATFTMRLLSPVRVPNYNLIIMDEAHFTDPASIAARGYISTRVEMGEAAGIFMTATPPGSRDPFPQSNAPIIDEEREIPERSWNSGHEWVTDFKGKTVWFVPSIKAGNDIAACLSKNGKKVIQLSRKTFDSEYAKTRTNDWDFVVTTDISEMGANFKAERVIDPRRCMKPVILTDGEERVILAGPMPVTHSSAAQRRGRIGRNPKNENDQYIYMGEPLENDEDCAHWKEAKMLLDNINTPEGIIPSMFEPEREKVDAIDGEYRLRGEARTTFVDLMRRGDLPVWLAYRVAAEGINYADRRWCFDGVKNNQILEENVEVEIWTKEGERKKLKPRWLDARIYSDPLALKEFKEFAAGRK

Row | Structure (SMILES) | pIC50 (Genome polyprotein [1]) | pIC50 (Genome polyprotein [2])
1 | Cc1ncc2c(n1)CCC[C@H]2NC(=O)c1cccc2c1CC(=O)N2 | < 4.00 | < 4.00
2 | O=C1Cc2c(cccc2C(=O)N[C@H]2C[C@H](OC(F)F)C2)N1 | < 4.00 | < 4.00
3 | O=C(Nc1cc2c(c(-c3c[nH]c(=O)c(F)c3)c1)CNC2)c1cc(F)cc2[nH]ncc12 | 4.16 | 4.41 and 4.16
4 | COc1cc(OC)cc([C@H]2CCN(C(=O)Nc3ccc4c(c3)CNC4)C2)c1 | < 4.00 | < 4.00
5 | COCn1ncc2c(C(=O)Nc3ccc4c(c3)CNC4)cc(Cl)cc21 | < 4.00 | < 4.00
6 | CO[C@H]1C[C@H](n2ncc3c(C(=O)Nc4ccc5c(c4)CNC5)cc(Cl)cc32)C1 | < 4.00 | < 4.00
7 | O=C1Cc2c(cccc2C(=O)N[C@H]2CCC[C@@H](C(=O)NC3CC3)C2)N1 | < 4.00 | < 4.00
8 | O=C(Nc1cc(-c2cccnc2)ccn1)c1cc(C2CC2)on1 | < 4.00 | < 4.00
9 | O=C1Cc2c(cccc2C(=O)NC[C@H]2C[C@@H](n3cccn3)C2)N1 | < 4.00 | < 4.00
10 | Cc1nc(C2CC2)[nH]c1C(=O)Nc1cc(-c2cccnc2)ccn1 | < 4.00 | < 4.00
11 | CN1C(=O)CC[C@H]1c1nc2c(C(=O)Nc3ccc4c(c3)CNC4)cc(F)cc2[nH]1 | < 4.00 | < 4.00
12 | O=C1Cc2c(cccc2C(=O)N[C@H]2CC[C@H](OC3CCCC3)CC2)N1 | < 4.00 | < 4.00
13 | Cc1nc(C2(NC(=O)c3cccc4c3CC(=O)N4)CCC2)no1 | < 4.00 | < 4.00
14 | C[C@H]1C[C@H]1c1cc(C(=O)Nc2cc(-c3cccnc3)ccn2)no1 | < 4.00 | < 4.00
15 | O=C1Cc2c(cccc2C(=O)NC2(c3ncccc3F)CC2)N1 | < 4.00 | < 4.00
16 | Cc1[nH]c(-c2ccccc2)cc1C(=O)Nc1cc(-c2cccnc2)ccn1 | < 4.00 | < 4.00
17 | CC(C)NC(=O)[C@H](Nc1ccc2c(c1)CN(C)C2)c1cc(Cl)cc2[nH]ncc12 | < 4.00 | 4.24 and < 4.00

Row | Structure (SMILES) | pIC50 (Genome polyprotein [1]) | pIC50 (Genome polyprotein [2])
18 | Cc1c(C(=O)Nc2cccc(-c3ccc(O)nc3)c2)cc(C2CC2)n1C | < 4.00 | < 4.00
19 | CC(C)(O)c1cncc(NC(=O)c2cccc3c2CC(=O)N3)c1 | < 4.00 | < 4.00
20 | COC(=O)N1CCc2cc(NC(=O)c3cc(C4CC4)n(C)c3C)ccc21 | < 4.00 | < 4.00
21 | O=C(Nc1ccc2c(c1)CNC2)c1cccc2c1[C@]1(CCN(C(=O)OCc3ccccc3)C1)C(=O)N2 | < 4.00 | < 4.00
22 | O=C1Cc2c(cccc2C(=O)N[C@H]2C[C@H](c3ccon3)C2)N1 | < 4.00 | < 4.00
23 | CC(C)n1ncc2c(C(=O)Nc3ccc4c(c3)CNC4)cc(Cl)cc21 | < 4.00 | < 4.00
24 | Cc1cc(=O)[nH]c(-c2cccc(NC(=O)c3cc(C4CC4)n(C)c3C)c2)n1 | < 4.00 | < 4.00
25 | O=C(Nc1ccc2c(c1)CNC2)c1cc(F)cc(C2=CCOCC2)c1 | < 4.30 | < 4.00
26 | Cc1c(NC(=O)c2cccc3c2CC(=O)N3)cnn1C1CCOCC1 | < 4.00 | < 4.00
27 | COc1ccc([C@@H]2C[C@H]2NC(=O)c2cccc3c2CC(=O)N3)cc1 | < 4.00 | < 4.00
28 | COc1cc(-c2cc(NC(=O)c3cc(F)cc4[nH]ncc34)cc3c2CNC3)ccn1 | 4.37 and 4.49 | 4.54 and 4.14
29 | CC(C)n1cc2c(C(=O)Nc3ccc4c(c3)CNC4)cc(Cl)cc2n1 | < 4.00 | < 4.00
30 | COC(=O)c1cc2c(cc1NC(=O)c1cc(F)cc3[nH]ncc13)CNC2 | < 4.00 | < 4.00
31 | Cc1c(C(=O)Nc2cccc(C(=O)NC3CC3)c2)cc(C2CC2)n1C | < 4.00 | < 4.00
32 | CCCn1ncc2c(C(=O)Nc3ccc4c(c3)CNC4)cc(Cl)cc21 | < 4.00 | < 4.00
33 | O=C(Nc1ccc2c(c1)CNC2)c1cc(Cl)cc2c1cnn2C1CCC1 | < 4.00 | < 4.00
34 | O=C1Cc2c(cccc2C(=O)NCC2(F)CC3(CCOCC3)C2)N1 | < 4.00 | < 4.00
